This experiment concerns HIV-1 isolates. The experiment can be described thus: plaque-reduction assay with HT4-6C cell monolayers, HIV isolates from untreated and treated individuals. It is filed as cell-based. Here is the method: The isolation of HIV-1 was achieved according to methodology reported by Larder et al. PBL samples were prepared by separation on “Ficoll-hypaque” gradients and co-cultivated directly with MT-2 cells (approximately 10^6 of each) after pre-stimulation for 24 to 72 hours with phytohaemag-glutinin (3 μg/ml). In many cases PBLs were cultured after long-term frozen storage. Cultures were maintained in RPMI 1640 supplemented with 10% fetal bovine serum, antibiotics, 2% interleukin-2, and polybrene (2 μg/ml) and expanded by addition of fresh MT-2 cells when a cytopathic effect was observed (between 4 and 14 days). HIV replication was confirmed by the detection of p24 antigen in culture supernatants (p24 antigen detection kit, Abbott, Chicago, Ill.). Virus were prepared from infected cultures and stored in aliquots at −70° C. […] (Larder, B. A., Darby, G., Richman, D., Science, 243, 1731, (1989)).
(In general: Plaques are areas of infected cells; plaque reduction assays count them against a control.)

Read-outs that look alike come from different tables or passages of the source.

For the compound `Cc1cn([C@H]2C[C@H](N=[N+]=[N-])[C@@H](CO)O2)c(=O)[nH]c1=O` [zidovudine, 3′-Azido-3′-deoxythymidine], the IC50 amounted to 2 µM (Human immunodeficiency virus 1, read-out: ZIDOVUDINE SENSITIVITY (ID50 μM), HIV isolate A012D, 26 months of therapy, RT 67 Asn, 70 Arg, 215 Phe, 219 Gln); 2.3 µM (Human immunodeficiency virus 1, read-out: ZIDOVUDINE SENSITIVITY (ID50 μM), HIV isolate A018C, 14 months of therapy, RT 67 Asn, 70 Arg, 215 Tyr, 219 Gln); 0.6 µM (Human immunodeficiency virus 1, read-out: ZIDOVUDINE SENSITIVITY (ID50 μM), HIV isolate A036C, 11 months of therapy, RT 67 Asp, 70 Lys, 215 Tyr, 219 Lys); 5.6 µM (Human immunodeficiency virus 1, read-out: ZIDOVUDINE SENSITIVITY (ID50 μM), HIV isolate A036D, 20 months of therapy, RT 67 Asn, 70 Arg, 215 Tyr, 219 Lys); 1.4 µM (Human immunodeficiency virus 1, read-out: ZIDOVUDINE SENSITIVITY (ID50 μM), HIV isolate P022C, 16 months of therapy, RT 67 Asn, 70 Arg, 215 Phe, 219 Gln); 0.56 µM (Human immunodeficiency virus 1, read-out: ZIDOVUDINE SENSITIVITY (ID50 μM), HIV isolate P035A, 6 months of therapy, RT 67 Asp, 70 Lys, 215 Tyr, 219 Lys). In addition, the IC50 came out at 2.56 µM (Human immunodeficiency virus 1, read-out: ZIDOVUDINE SENSITIVITY (Mean ID50, μM), HIV isolate A012D, Table 2); 0.03 µM (Human immunodeficiency virus 1, read-out: Zidovudine Sensitivity (ID50 μM), HIV isolate A001A, 0 months of therapy, RT sequence wild type, Table 3); 0.11 µM (Human immunodeficiency virus 1, read-out: Zidovudine Sensitivity (ID50 μM), HIV isolate A001B, 12 months of therapy, RT sequence R70 and N67 R70 Q219, Table 3); 2 µM (Human immunodeficiency virus 1, read-out: Zidovudine Sensitivity (ID50 μM), HIV isolate A012D, 26 months of therapy, RT N67 R70 F215 Q219, Table 3); 4 µM (Human immunodeficiency virus 1, read-out: Zidovudine Sensitivity (ID50 μM), HIV isolate A018C, 14 months of therapy, RT N67 R70 Y215 Q219, Table 3); 0.11 µM (Human immunodeficiency virus 1, read-out: Zidovudine Sensitivity (ID50 μM), HIV isolate A025A, 24 months of therapy, RT R70, Table 3). Moreover, the IC50 is, setting by setting: (Human immunodeficiency virus 1, read-out: Zidovudine Sensitivity (ID50 μM), HIV isolate A036C, 11 months of therapy, RT Y215, Table 3) 0.67 µM; (Human immunodeficiency virus 1, read-out: Zidovudine Sensitivity (ID50 μM), HIV isolate A036D, 20 months of therapy, RT N67 R70 Y215, Table 3) 5.6 µM.
